Experiments:
[1] = Cytotoxicity against human CEM cells assessed as growth inhibition after 72 hrs by resazurin dye-based fluorescence analysis; assay type: cell-based; conditions: CEM (CCRF-CEM) cells
[2] = test system: HCC827; test: Cytotoxicity against human HCC827 cells assessed as growth inhibition after 72 hrs by resazurin dye-based fluorescence analysis; assay type: functional; conditions: HCC827, 72 h
[3] = Cytotoxicity against human BJ cells assessed as growth inhibition after 72 hrs by resazurin dye-based fluorescence analysis; assay type: cell-based
[4] = test system: K562; test: Cytotoxicity against human K562 cells assessed as growth inhibition after 72 hrs by resazurin dye-based fluorescence analysis; assay type: functional; conditions: K562, 72 h
[5] = test system: EOL1; test: Cytotoxicity against FIP1L1-PDGFRA positive human EOL-1 cells assessed as growth inhibition after 72 hrs by resazurin dye-based fluorescence analysis; assay type: functional; conditions: EOL1, 72 h
[6] = Chemical stability of compound; assay type: physicochemical
[7] = Selectivity index, ratio of GI50 for human BJ cells to GI50 for FIP1L1-PDGFRA positive human EOL-1 cells after 72 hrs by resazurin dye-based fluorescence analysis
[8] = target: Platelet-derived growth factor receptor alpha (Homo sapiens, UniProt P16234, V561D); test: biochemical; assay type: cell-based, Sf9
Chain of Platelet-derived growth factor receptor alpha (P16234 24-1089 V561D limits assumed): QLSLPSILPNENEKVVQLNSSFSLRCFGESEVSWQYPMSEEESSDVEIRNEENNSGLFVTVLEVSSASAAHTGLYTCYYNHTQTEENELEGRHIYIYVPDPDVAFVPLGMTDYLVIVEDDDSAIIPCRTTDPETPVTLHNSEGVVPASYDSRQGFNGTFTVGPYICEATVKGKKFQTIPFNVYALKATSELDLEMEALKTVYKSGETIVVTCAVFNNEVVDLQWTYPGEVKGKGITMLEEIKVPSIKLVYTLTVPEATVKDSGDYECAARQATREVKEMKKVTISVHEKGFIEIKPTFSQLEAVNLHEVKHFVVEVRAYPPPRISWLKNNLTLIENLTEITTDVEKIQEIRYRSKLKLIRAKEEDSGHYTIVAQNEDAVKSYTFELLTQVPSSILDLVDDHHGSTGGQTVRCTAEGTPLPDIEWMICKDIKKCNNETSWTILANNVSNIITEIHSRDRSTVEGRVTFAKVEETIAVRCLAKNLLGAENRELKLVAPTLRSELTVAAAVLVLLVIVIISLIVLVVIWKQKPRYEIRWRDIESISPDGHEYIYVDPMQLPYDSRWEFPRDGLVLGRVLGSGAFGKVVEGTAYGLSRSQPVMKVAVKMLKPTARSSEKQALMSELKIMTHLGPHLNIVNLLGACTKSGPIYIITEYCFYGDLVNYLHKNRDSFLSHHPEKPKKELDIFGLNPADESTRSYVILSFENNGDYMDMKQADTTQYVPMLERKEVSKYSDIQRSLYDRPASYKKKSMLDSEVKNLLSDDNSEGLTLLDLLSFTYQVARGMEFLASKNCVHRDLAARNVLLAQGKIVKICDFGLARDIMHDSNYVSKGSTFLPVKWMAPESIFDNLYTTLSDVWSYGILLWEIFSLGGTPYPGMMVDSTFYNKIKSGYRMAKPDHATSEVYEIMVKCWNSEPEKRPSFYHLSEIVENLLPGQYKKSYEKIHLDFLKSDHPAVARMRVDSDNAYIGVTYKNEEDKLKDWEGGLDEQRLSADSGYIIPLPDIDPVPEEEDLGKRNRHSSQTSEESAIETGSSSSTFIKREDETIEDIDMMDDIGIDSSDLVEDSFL

Row | SMILES | GI50 at 72 h [1] [µM] | GI50 [2] [µM] | GI50 at 72 h [3] [µM] | GI50 [4] [µM] | GI50 [5] [µM] | Stability [6] | RatioGI50 [7] | IC50 [8] [µM]
1 | N[C@H]1CC[C@H](Nc2nc(Nc3ccc(-c4ccoc4)nc3)c3ncn(C4CCCC4)c3n2)CC1 | 0.619 | 0.632 | 13.1 | 0.876 | 0.017 |  |  | 
2 | CC(C)(C)c1cc(NC(=O)Nc2ccc(-c3cn4c(n3)sc3cc(OCCN5CCOCC5)ccc34)cc2)no1 [QUIZARTINIB] | > 40 | > 40 | > 40 | > 40 | < 0.0005 |  |  | 
3 | N[C@H]1CC[C@H](Nc2nc(Nc3ccc(CN4CCOCC4)cc3)c3ncn(CCCO)c3n2)CC1 | 34.5 | 18.4 | > 40 | 9.93 | 0.164 |  |  | 
4 | COc1ccccc1-c1ccc(Nc2nc(N[C@H]3CC[C@H](N)CC3)nc3c2ncn3C2CCCC2)cn1 | 0.46 | 0.638 | 6.2 | 0.553 | 0.014 |  |  | 
5 | NCCCCNc1nc(Nc2cccc(CN3CCOCC3)c2)c2ncn(C3CCCC3)c2n1 | 8.19 | 5.37 | 22 | 8.4 | 0.061 |  |  | 
6 | NCCCCNc1nc(Nc2ccc(N3CCN(Cc4ccccc4)CC3)cc2)c2ncn(CCCO)c2n1 | 7.57 | 6.7 | 28.5 | 2.57 | 0.158 |  |  | 
7 | OCCCCNc1nc(Nc2cccc(CN3CCOCC3)c2)c2ncn(C3CCCC3)c2n1 | 11.1 | 8.13 | 25.7 | 30.4 | 0.282 |  |  | 
8 | OCCCCNc1nc(Nc2ccc(CN3CCOCC3)cc2)c2ncn(C3CCC(O)C3)c2n1 (centres undefined) | 6.43 | 3.26 | 26.1 | 3.78 | 0.162 |  |  | 
9 | N[C@H]1CC[C@H](Nc2nc(Nc3ccc(-n4cccn4)cc3)c3ncn(C4CCCC4)c3n2)CC1 | 0.933 | 0.847 | 10.4 | 0.982 | 0.008 | Unstable |  | 
10 | N[C@H]1CC[C@H](Nc2nc(Nc3ccccc3CN3CCOCC3)c3ncn(C4CCCC4)c3n2)CC1 | 18.1 | 22.2 | 30.4 | 4.11 | 4.52 |  | 7 | > 20
11 | NCCCCNc1nc(Nc2ccc(Oc3nccs3)cc2)c2ncn(C3CCCC3)c2n1 | 8.64 | 6.31 | 18.6 | 5.98 | 0.118 |  |  | 
12 | N[C@H]1CC[C@H](Nc2nc(Nc3ccc(-n4cncn4)cc3)c3ncn(C4CCCC4)c3n2)CC1 | 0.871 | 1.42 | 14.7 | 1.55 | 0.008 |  |  | 
13 | NCCCCNc1nc(Nc2ccccc2CN2CCOCC2)c2ncn(C3CCCC3)c2n1 | 25.7 | 26.3 | 37.5 | 12.2 | 6.41 |  | 6 | > 20
14 | OCCCCNc1nc(Nc2ccc(CN3CCOCC3)cc2)c2ncn(CCCO)c2n1 | 5.17 | 10.6 | 20.8 | 4.74 | 0.294 |  |  | 
15 | N[C@H]1CC[C@H](Nc2nc(Nc3ccc(N4CCN(Cc5ccccc5)CC4)cc3)c3ncn(C4CCCC4)c3n2)CC1 | 0.582 | 0.918 | 10 | 0.97 | 0.022 |  |  | 
16 | OCCCCNc1nc(Nc2ccc(CN3CCOCC3)cc2)c2ncn(C3CCCC3)c2n1 | 3.48 | 2.51 | 22.8 |  | 0.202 |  |  | 
17 | OCCCNc1nc(Nc2ccc(Oc3nccs3)cc2)c2ncn(C3CCCC3)c2n1 | 23 | 6.49 | 34.1 | 11.3 | 0.442 |  |  | 
18 | N[C@H]1CC[C@H](Nc2nc(Nc3ccc(Oc4nccs4)cc3)c3ncn(C4CCCC4)c3n2)CC1 | 0.65 | 0.692 | 6.85 | 0.676 | 0.008 |  |  | 
19 | N[C@H]1CC[C@H](Nc2nc(Nc3ccc(Oc4ncccn4)cc3)c3ncn(C4CCCC4)c3n2)CC1 | 1.15 | 2.72 | 16.9 | 2.27 | 0.02 |  |  | 
20 | N[C@H]1CC[C@H](Nc2nc(Nc3cccc(CN4CCOCC4)c3)c3ncn(CCCO)c3n2)CC1 | > 40 | 25.5 | > 40 | > 40 | 0.075 |  |  | 
21 | N[C@H]1CC[C@H](Nc2nc(Nc3ccc(N4CCN(Cc5ccccc5)CC4)cc3)c3ncn(C4CCC(O)C4)c3n2)CC1 (some centres undefined) | 0.54 | 0.84 | 16.9 | 0.652 | 0.011 |  |  | 
22 | NCCCCNc1nc(Nc2ccc(CN3CCOCC3)cc2)c2ncn(CCCO)c2n1 | 8.2 | 19 | 35 | 9.37 | 0.138 |  |  | 

Source: ChEMBL document CHEMBL4342414, “Activity of 2,6,9-trisubstituted purines as potent PDGFRα kinase inhibitors with antileukaemic activity” (Eur J Med Chem, 2019)
